# Tests used:
# GLP1R [1] = target: T1, GLP1R (Homo sapiens, UniProt P43220); experiment: GLP1R cAMP HTRF assay, HEK293/GLP-1R/CRE/Luc (HEK293T cells); format: cell-based
# Outline: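 cAMP accumulation via HTRF after 30 min, 37 °C exposure of 1000 receptor-expressing cells/well to compound (0.5% DMSO final) in IBMX (500 μM)/0.1% BSA DPBS.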
# GLP1R [2] = target: T1, GLP1R; experiment: β-Arrestin-mediated GLP1R internalization assay (PathHunter engineered U2OS cells); format: cell-based; parameters: host or cells: PathHunter engineered U2OS cells; settings: averaged Bmax, percentage of control GLP-1 (7-37), highest concentration tested
# Excerpt: A similar assay can also be used to assess the extent of signal attenuation due to GLP-1R internalization (the β-Arrestin Internalization Assay). In this assay, activated GLP1R Internalization cells were engineered to co-express an untagged GLP1R, Enzyme Acceptor (EA) tagged β-Arrestin, and a ProLink™ (PK) tag localized to the endosomes. Activation of the GLP1R induces β-Arrestin recruitment, which leads to internalization of the Receptor/Arrestin-EA complex in PK-tagged endosomes. This forces complementation of the two β-galactosidase enzyme fragments (EA and PK) to form a functional enzyme that hydrolyzes substrate to generate a chemiluminescent signal. These cells have been modified to prevent long term propagation and expansion using a proprietary compound that has no apparent effect on assay performance.
# Specifically, PathHunter engineered U2OS cells from the assay kit (Cat #93-0724E3CP0L) were plated at a density of 2000 cells/20 μL/well in a 384-well white/clear bottom plates (Greiner Cat #781098). Frozen cells were quickly thawed and 10 mL of cell plating medium (provided by the kit) was added to thawed cells. Cells were stored in a 37° C. incubator and kept for approximately 48 hours until ready for the assay.
# Reference and test compounds were dissolved in 100% DMSO. 5× concentration of an agonist was prepared in serum free DMEM (Thermo Cat #11965). 5 μL of this solution was added to 20 μL cell medium in assay plate for a final top concentration of 10 μM. Plates were incubated at 37° C. for 180 min.
# Following 180 min incubation, detection reagents were made up by combining 1 part Galacton Star Substrate with 5 parts Emerald II™ Solution, and 19 parts of PathHunter Cell Assay Buffer, respectively. 12.5 μL detection reagent was added to each well. The plates were then incubated at room temperature for 60 min. Plates were then read on Envision for 0.1 sec/well.
# EC50 determinations were made from agonist dose-response curves analyzed with a curve fitting program using a 4-parameter logistic dose response equation.
# [3] = Monkey oral pharmacokinetic (PK) study, non-naïve Cynomolgus male monkeys; format: in vivo; settings: Dose 2
# Method: Appropriate volumes of vehicles (e.g., 2% Tween 80 (v:v) and 0.5% MC (w:v) in saline or 0.5% MC (w:v) in water were then added into the mortar containing the ground compounds, and the mixture was then grinded with a pestle until a homogeneous paste was formed. Additional appropriate volumes of vehicles were added into the mortar containing each compound, and the mixture was grinded further with the pestle until a homogeneous suspension was obtained.
# The rest of the vehicle was added to make up the final dosing volume of about 1 mg/mL or 2 mg/mL (i.e., final dosing volume of about 5 mL/kg), and the homogenous suspension was continuously stirred prior to and during the dosing.
# Non-naïve Cynomolgus male monkeys (n=3/test article; sourced from Hainan Jingang Biotech Co., Ltd., Nayang Xmtan, Fucheng Town, Qiongshan District, Haikou City, Hainan Province, China); or non-naïve aged, obese, and diabetic male Macaca fascicularis monkeys (n=3/test article, Source: Kunming Biomed International Colony) were used in pre-clinical in vivo studies. All non-naïve Cynomolgus male monkeys were approximately 3 to 5 years old, weighed about 2.5-5 kg, and were within ±20% of the average body weight. All non-naïve aged, obese, and diabetic male Macaca fascicularis monkeys were approximately 12 to 20 years old, weighed about >8-12 kg.
# All animals were fasted overnight before dosing, and the food were supplied approximately 4 hours post dose (with free access to water all the time).
# Animals were restrained at designated time points for blood sampling. Approximately 500 μL of blood samples was taken via cephalic or saphenous vein into EDTA-K2 tubes. Blood samples were put on wet ice before centrifugation.
# For oral administration (PO) of either Dose 1 or Dose 2: blood samples were collected at pre-dose, and at 15 min, 30 min, 1 hr, 2 hr, 4 hr, (6 hr for compounds 19 and 28 with cynomolgus monkeys only), 8 hr, 12 hr, and 24 hr post dose (i.e., 9 or 10 total time points for each compound at each dose).
# The blood samples were centrifuged at approximately 2,000-4,000 rpm for about 10-15 minutes at 2-8′C, and each resulting plasma portion was then transferred into an individual tube.
# LC-MS/MS methods were developed, and bioanalysis for the test articles in monkey plasma was performed according to the developed LC-MS/MS methods.
# Undiluted plasma samples: An aliquot of 20-50 μL plasma sample was mixed with 200 μL of ACN or MeOH containing one of the internal standards (IS, e.g., Diclofenac or Terfenadine). The mixture was then vortexed for about 1-5 min, and centrifuged at about 4,000-5,800 rpm for about 10-15 min. An aliquot of 1 μL supernatant was used for LC-MS/MS analysis.
# Pharmacokinetics parameters, including area under the curve (AUC0-t), maximum plasma concentration (Cmax), time to reach maximum plasma concentration (Tmax), oral bioavailability (F %), etc., were calculated using Phoenix software (Version 6.4) and non-compartment model.
# GLP1R [4] = target: T1, GLP1R; experiment: GLP1R cAMP assay, CHO cells stably expressing human GLP-1R; format: cell-based
# Method: GLP-1R-mediated agonist activity was determined with a cell-based functional assay utilizing an HTRF (Homogeneous Time-Resolved Fluorescence) cAMP detection kit (cAMP Dynamic 2 Assay Kit; CisBio cat #62AM4PEC) that measures cAMP levels in the cell. The method is a competitive immunoassay between native cAMP produced by the cells and exogenous cAMP labeled with the dye d2. The tracer binding is visualized by a mAb anti-cAMP labeled with Cryptate. The specific signal (i.e., energy transfer) is inversely proportional to the concentration of cAMP in either standard or experimental sample.
# Varying concentrations of each compound to be tested (in DMSO) were diluted in DMSO to obtain 200× compound working solution first and then 50 nl compounds were added to a white 384-well assay plate (Greiner 784075) with ECHO. The final DMSO concentration was 0.5%. The compound concentration range may be adjusted at any time.
# Cells were removed from cryopreservation, re-suspended in 5 mL of Dulbecco's Phosphate Buffered Saline (DPBS-Sigma Cat # D8537) and centrifuged at 900 g for 5 min at 22° C. The cell pellet was then re-suspended in 1 mL of assay buffer [DPBS with 500 μM IBMX (Sigma #15879) and 0.1% BSA (Sigma # A1933). IBMX and BSA were freshly added on the day of assay]. A 10 μL sample of the cell suspension was counted on an Invitrogen Countess II to determine cell viability and cell count per mL. The remaining cell suspension was then adjusted with assay buffer to deliver 1000 viable cells per well using a Matrix Combi Multidrop reagent dispenser. 10 μL cell suspensions were added to each well of the assay plate which already contains compound. The plate was sealed and incubated at 37° C. with 5% CO2 for 30 minutes.
# Following the 30 minute incubation, 5 μL of labeled d2 cAMP and 5 μL of anti-cAMP antibody (both diluted 1:20 in cell lysis buffer; as described in the manufacturer's assay protocol) were added to each well of the assay plate. The plates w ere then incubated at room temperature and after 60 minutes, changes in the HTRF signal were read with an Envision multi-label plate reader using excitation of 330 nm and emissions of 615 and 665 nm. Raw data were converted to nM cAMP by interpolation from a cAMP standard curve (as described in the manufacturer's assay protocol) and the percent effect was determined relative to a saturating concentration of the full agonist GLP-17-37 (10 nM) included on each plate. EC50 determinations were made from agonist dose-response curves analyzed with a curve fitting program using a 4-parameter logistic dose response equation. […]
# [5] = male, cynomolgus monkey, plasma, oral
# [6] = mean ± spread, read-out: HEK293T cells EC50
# [7] = CHO cells, mean ± spread, read-out: CHO cells EC50
# T1 sequence (P43220 24-463): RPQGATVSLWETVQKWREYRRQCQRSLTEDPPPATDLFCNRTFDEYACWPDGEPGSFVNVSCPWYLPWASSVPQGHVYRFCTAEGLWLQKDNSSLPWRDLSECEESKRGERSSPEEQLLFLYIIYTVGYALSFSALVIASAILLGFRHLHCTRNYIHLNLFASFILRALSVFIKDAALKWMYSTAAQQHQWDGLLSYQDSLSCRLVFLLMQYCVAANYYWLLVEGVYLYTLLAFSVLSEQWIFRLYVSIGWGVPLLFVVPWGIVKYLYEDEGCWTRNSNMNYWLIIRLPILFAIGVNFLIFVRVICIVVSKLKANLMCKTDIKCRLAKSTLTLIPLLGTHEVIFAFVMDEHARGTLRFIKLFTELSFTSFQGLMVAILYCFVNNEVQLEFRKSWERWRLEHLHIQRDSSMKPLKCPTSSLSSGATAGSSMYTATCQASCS
SMILES,EC50 (GLP1R [1]; read-out: EC50) [nM],Bmax (POC) (GLP1R [2]),EC50 (GLP1R [1]; [6]) [nM],EC50 (GLP1R [4]; [7]) [nM],other results
"O=C(O)c1ccc2nc(CN3CC=C(c4cccc(OCc5ccc(C(F)(F)F)nc5)n4)CC3)n(C[C@@H]3CCO3)c2c1 [Compound 45, (S)-1-(oxetan-2-ylmethyl)-2-((4-(6-((6-(trifluoromethyl)pyridin-3-yl)methoxy)pyridin-2-yl)-5,6-dihydropyridin-1(2H)-yl)methyl)-1 h-benzo[d]imidazole-6-carboxylic acid]",≤ 15,19.1,,,
"N#Cc1ccc(COc2cccc(C3CCN(Cc4nc5ccc(C(=O)O)cc5n4C[C@@H]4CCO4)CC3)n2)c(F)c1 [Compound 418, reference compound]",,,,,"Tmax [3, 5]: 1.7 h; bioavailability [3, 5]: 8.17%; AUC0-24 h ([3]; oral): 774 Arbitrary units; Cmax ([3]; oral): 232 Arbitrary unit; drop in plasma concentration ([3]; over about 24 hours post oral dosing): about 10 fold"
"Fc1cc(Cl)ccc1COc1cccc(C2=CCN(Cc3nc4ccc(-c5nnn[nH]5)cc4n3C[C@@H]3CCO3)CC2)n1 [Compound 105, (S)-2-((4-(6-(4-chloro-2-fluorobenzyloxy)pyridin-2-yl)-5,6-dihydropyridin-1(2H)-yl)methyl)-1-(oxetan-2-ylmethyl)-6-(1H-tetrazol-5-yl)-1H-benzo[d]imidazole]",≤ 15,24.2,,,
"CS(=O)(=O)NC(=O)c1ccc2nc(CN3CC=C(c4cccc(OCc5ccc(Cl)cc5F)n4)CC3)n(C[C@@H]3CCO3)c2c1 [Compound 47, (S)-2-((4-(6-(4-chloro-2-fluorobenzyloxy)pyridin-2-yl)-5,6-dihydropyridin-1(2H)-yl)methyl)-N-(methylsulfonyl)-1-(oxetan-2-ylmethyl)-1 h-benzo[d]imidazole-6-carboxamide]",≤ 15,22.8,,,
O=C(O)c1ccc2nc(CN3CC=C(c4ccnc(OCc5ccc(Cl)cc5F)n4)CC3)n(C[C@@H]3CCO3)c2c1 [drawing 59],,,1.8,73.7,
O=C(O)c1ccc2nc(CN3CC=C(c4cccc(OCc5ccc(C(F)(F)F)cc5)n4)CC3)n(C[C@@H]3CCO3)c2c1 [Compound 46],≤ 15,27.4,,,

# Second part, led by results:
EC50 (GLP1R [1]; read-out: EC50) [nM],Bmax (POC) (GLP1R [2]),EC50 (GLP1R [1]; [6]) [nM],EC50 (GLP1R [4]; [7]) [nM],SMILES,other results
≤ 15,27.03,,,"O=C(O)c1ccc2nc(CN3CCN(c4ccnc(OCc5ccc(Cl)cc5F)n4)CC3)n(C[C@@H]3CCO3)c2c1 [Compound 9, (S)-2-((4-(2-((4-chloro-2-fluorobenzyl)oxy)pyrimidin-4-yl)piperazin-1-yl)methyl)-1-(oxetan-2-ylmethyl)-1H-benzo[d]imidazole-6-carboxylic acid]",
≤ 15,,,,"N#Cc1ccc(COc2cccc(N3CCC(Cc4nc5ccc(C(=O)O)c(F)c5n4C[C@@H]4CCO4)CC3)n2)c(F)c1 [Compound 228, (S)-2-((l-(6-((4-cyano-2-fluorobenzyl)oxy)pyridin-2-yl)piperidin-4-yl)methyl)-7-fluoro-1-(oxetan-2-ylmethyl)-1H-benzo[d]imidazole-6-carboxylic acid]","EC50 (GLP1R [4]; CHO cells stably expressing GLP-1R, read-out: CHO cAMP stable EC50): ≤ 150 nM"
,,0.219,2.25,N#Cc1ccc(COc2cccc(C3=CCN(Cc4nc5ccc(C(=O)O)cc5n4C[C@@H]4CCO4)CC3)n2)c(F)c1 [drawing 55],
,,0.393,3.28,O=C(O)c1ccc2nc(CN3CC=C(c4cccc(OCc5ccc(Cl)cc5F)n4)CC3)n(C[C@@H]3CCO3)c2c1 [drawing 65],
,,0.412,7.65,O=C(O)c1ccc2nc(CN3CCC(c4cccc(OCc5ccc(Cl)cc5F)n4)CC3)n(C[C@@H]3CCO3)c2c1 [reference compound],
,,10.5,289 ± 53,"O=C(O)c1ccc2nc(CN3CCC(c4cncc(OCc5ccc(Cl)cc5F)n4)CC3)n(C[C@@H]3CCO3)c2c1 [drawing 60, reference compound]",
,,1.98,95.8,"O=C(O)c1ccc2nc(CN3CCC(c4ccnc(OCc5ccc(Cl)cc5F)n4)CC3)n(C[C@@H]3CCO3)c2c1 [drawing 58, reference compound]",
